Test [1] addresses T1, Voltage-gated L-type calcium channel (Rattus norvegicus, UniProt P22002+Q02485+P27732). Description: Inhibition of L-type calcium channel in Rattus norvegicus Wistar (rat) thoracic aorta assessed as relaxation of KCl-induced vasoconstriction after 30 min relative to control. Format: tissue-based.
In test [2] the target is T1, Voltage-gated L-type calcium channel. Description: Inhibition of L-type calcium channel in Rattus norvegicus Wistar (rat) thoracic aorta assessed as relaxation of phenylephrine-induced vasoconstriction after 30 min relative to control. It is filed as tissue-based.
The target is the same in test [3]. Description: Inhibition of L-type calcium channel in neonatal rat cortical neurons assessed as inhibition of veratridine-induced intracellular calcium level incubated for 30 min followed by veratridine induction for 2 min by fluorimetric analysis. Format: cell-based.

Each structure is given as a SMILES string.

Regarding `CCOC(=O)C1=C(C)NC(C)=C(C(=O)OC)C1c1cccc(OCC(=O)N2CCCCC2)c1` (configuration not stated), in test [1], the IC50 worked out at 1.25 µM and the negative-log IC50 (pIC50) was 5.9.

`CCOC(=O)C1=C(C)NC(C)=C(C(=O)OC)C1c1ccc(OCC(=O)OC)c(OC)c1` (configuration not stated): in test [1], the IC50 amounted to 12.8 µM and the pIC50 is given as 4.89.

Take `CCOC(=O)C1=C(C)NC(C)=C(C(=O)OC)C1c1ccc(OCC(=O)N2CCCCC2)c(OC)c1` (configuration not stated): in test [1], the 50% inhibitory concentration (IC50) turned out to be 3.89 µM and the pIC50 is recorded as 5.41.

For `COC(=O)C1=C(C)NC(C)=C(C(=O)OC)C1c1ccc(OCC(=O)N2CCCC2)c(OC)c1`, in test [2], the IC50 was determined as 0.83 µM and the negative-log IC50 (pIC50) was 6.08. Further, in test [3], the IC50 came out at 5.6 µM.

For the compound `COC(=O)C1=C(C)NC(C)=C(C(=O)OC)C1c1ccc(OCC(=O)N2CCCCC2)c(OC)c1`, the half-maximal inhibitory concentration (IC50) in test [3] turned out to be 10 µM.

Regarding `COC(=O)C1=C(C)NC(C)=C(C(=O)OC)C1c1ccc(OCC(=O)N2CCN(C)CC2)c(OC)c1`, the IC50 in test [2] stood at 6.91 µM; in test [3], 9.1 µM. Besides, in test [2], the pIC50 is recorded as 5.16.

As to `COC(=O)C1=C(C)NC(C)=C(C(=O)OC)C1c1ccc(OCC(=O)n2ccnc2)c(OC)c1`, the IC50 in test [3] came out at 10.1 µM.

For the compound `COC(=O)C1=C(C)NC(C)=C(C(=O)OC)C1c1ccc(OCC(=O)NC(C)(C)C)c(OC)c1`, the concentration for half-maximal inhibition (IC50) in test [3] turned out to be 2.5 µM.

Consider `COC(=O)C1=C(C)NC(C)=C(C(=O)OC)C1c1ccc(OCC(=O)N2CCCC(C)C2)c(OC)c1` (configuration not stated), for which, in test [2], the IC50 amounted to 1.73 µM and the pIC50 is reported as 5.76. Besides, the IC50 in test [3] is 10 µM.

Regarding `COC(=O)COc1ccc(C2C(C(=O)OC)=C(C)NC(C)=C2C(=O)OC)cc1`, the IC50 in test [3] was 2.1 µM.

On to `COC(=O)COc1cccc(C2C(C(=O)OC)=C(C)NC(C)=C2C(=O)OC)c1`, for which, in test [2], the 50% inhibitory concentration (IC50) turned out to be 1.44 µM and the negative-log IC50 (pIC50) is on record as 5.84. Also, the concentration for half-maximal inhibition (IC50) in test [3] came out at 10 µM.

`COC(=O)C1=C(C)NC(C)=C(C(=O)OC)C1c1cccc(OCC(=O)N2CCOCC2)c1`: the values for the 50% inhibitory concentration (IC50) in test [2] and in test [3] were 0.64 µM and 9.9 µM, respectively. Moreover, in test [2], the negative logarithm of the IC50 (pIC50) turned out to be 6.19.

Regarding `COC(=O)C1=C(C)NC(C)=C(C(=O)OC)C1c1cccc(OCC(=O)N2CCCC2)c1`, in test [2], the IC50 was 4.57 µM and the pIC50 is 5.34. Moreover, the IC50 in test [3] was determined as 3.6 µM.

Regarding `COC(=O)C1=C(C)NC(C)=C(C(=O)OC)C1c1cccc(OCC(=O)N2CCCCC2)c1`, in test [3], the IC50 worked out at 10 µM.

In the case of `COC(=O)C1=C(C)NC(C)=C(C(=O)OC)C1c1cccc(OCC(=O)N2CCN(C)CC2)c1`, the IC50 was 9.54 µM in test [2] and 10 µM in test [3]. The pIC50 in test [2] is reported as 5.02.

The values above are taken from ChEMBL document CHEMBL3045355, “Synthesis of a New Series of 4-Aryl-1,4-Dihydropyridines with Calcium Channel Blocking and Vasodilatory Activity” (Med Chem Res, 2012).
